Experimental data as given in patent US20200247855A1, “THERAPY AND DIAGNOSTICS” (OXFORD UNIVERSITY INNOVATION LIMITED, priority 2017, published 2020).
Positions of bridges follow the written chain, without caps; N, C: chain ends. Residues, ends and D or L forms follow the SMILES beside them. Chains are numbered I, II in the order given. *: point of attachment. FITC = O=C1OC2(c3ccc(O)cc3Oc3cc(O)ccc32)c2ccc(NC(=S)*)cc21

What was measured:
[1] = target: T1, human CCL8-647 (Homo sapiens, UniProt P80075); assay: Fluorescent chemokine binding to THP-1 cells (flow cytometry); type: cell-based
T1 construct: purchased Almac (UK)
T1 sequence (P80075 24-99): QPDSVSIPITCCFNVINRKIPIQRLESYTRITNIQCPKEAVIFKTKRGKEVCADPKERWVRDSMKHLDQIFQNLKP
Experimental: P672_PEP_SCRAM (C-terminally amidated)=[…] FIG. 16(A). […] 60 μM (+) P672_PEP or P672_PEP_SCRAM were incubated with CCL8-647 (2.5 nM) for half an hour at 37° C. prior to adding to THP-1 cells and incubating everything together for a further half an hour at 37° C. Cells were then analysed using fluorescence assisted cell sorting (10,000 cells analysed) and MFI recorded. Experiment carried out in triplicate where each data point is the average of one experiment carried out in technical triplicate. Mean with SEM shown and statistical significance was determined using one-way ANOVA with Sidak's correction for multiple comparisons using Graph Pad Prism 6. ****=P<0.00005, ns=not significant.
Data are shown as mean of two technical replicates. […] Curves were fitted with 4 parameters to estimate IC50.
Fluorescent chemokine (conjugated to AlexaFluor-647) binding to THP-1 cells results in an increase in the cellular fluorescence intensity, which is quantitatively measured using flow cytometry.
Fluorescent Chemokine/Receptor Blocking Assay CCL8-647 (2.5 nM, final) or […] (1.2 nM, final) was incubated for 30 minutes with varying doses of peptide (0-100 μM, final concentration) in 50 μL assay buffer (RPMI-1640+L-glutamine (4 mM)+10% heat treated fetal bovine serum+0.2% DMSO) at 37° C. […]

[2] = target: T2, CCL8_HUMAN (Homo sapiens, UniProt P80075); assay: Neutralisation of chemokine induced THP-1 cell migration; type: cell-based
T2 sequence (P80075 24-99): T1 sequence (P80075 24-99)
Experimental: Table 1. Tick CKBPs described in PCT/GB2017/050563 and [17]. Tick peptide sequences isolated in yeast surface display fluorescent-activated cell sorting (FACS) screens using a labelled chemokine. Identity with Evasin-1, 4 or 3 was calculated using BLAST. Abbreviations: IXORI—Ixodes ricinus, RHISA—Rhipicephalus sanguineus, AMBMA—Amblyomma maculatum, AMBPA—Amblyomma parvum, AMBTR—Amblyomma triste, AMBAM—Amblyomma americanum, AMBCA—Amblyomma cajennense, RHIPU—Rhipicephalus pulchellus. Table 2A-C. Binding characteristics of tick CKBPs previously disclosed (PCT/GB2017/050563 and [17]). All members of the human chemokine family[164] are listed in column 1. Binding to human chemokines was determined for 14 tick CKBPs using biolayer interferometry (BLI) with calculated Kd shown as Molar (Moles/Litre). Binding data for 17 other novel tick CKBPs was assayed using yeast surface display[17,166],with positive binding results shown as “YES”. For biolayer interferometry, His-tagged purified tick CKBP was bound to a Ni-NINTA sensor on an OctetRed® 384 system, and then binding to each chemokine listed (with the exception of CCL25, CCL26, CXCL16, CXCL17, CXCL4L1, XCL2) was assayed in a cross-binding screen at a chemokine concentration of 300 nM as described. For those chemokines showing binding to a tick CKBP in the cross-binding screen, binding assays were repeated using different doses of chemokine. Association, equilibrium and dissociation data were analysed using Octet software to create corresponding fitted curves, and used to calculate Kd. For yeast surface display, (YSD) background fluorescence was controlled for by using either an empty vector or by omitting the chemokine (i.e. using streptavidin-Alexa647 alone). An arbitrary threshold of >3 fold over background mean fluorescence intensity was chosen to describe confirmed re-tests. Where binding was detected data are indicated as “YES”. […] For yeast surface display data, empty cells represent chemokines that were not tested. Binding data published in relation to previously described tick CKBPs (Evasins-1, 4 and 3) is also shown for comparison in each of FIGS. 2A-C, with the relevant data obtained from publications: [20-22,32]. Table 3: Neutralisation of human chemokines by tick CKBPs previously disclosed (PCT/GB2017/050563 and [17]). Neutralising activity was determined using a quantitative THP1 cell migration assay in a 96-well Boyden chamber with chemokine in the bottom chamber as described. Cells migrating through to the bottom chamber at 4 hours were counted using flow cytometry in a 96 well plate format. IC50 for neutralisation was determined at the chemokine EC80 dose as determined using a range of tick CKBP concentrations. Data was analysed using GraphPad Prism to determine IC50, which is shown as Molar (Moles/Litre). Empty cells represent experiments not done. Table 4—Other previously described tick CKBPs. Tick CKBPs that were also described in PCT/GB2017/050563 and Singh et al. are indicated in “Notes”. Table 5.—Novel tick CKBPs of the invention. Table 6. […] The peptide sequence prefix indicates the identity, and suffix indicate the tick species as follows: AMBCA, Amblyomma cajennense and IXORI, Ixodes ricinus. […] Individual yeast clones recovered from the library were re-tested using a FACS (fluorescence activated cell sorting), experiment. The binding of the peptide to the chemokine was assayed by measuring the percent (%), of yeast cells expressing the given peptide that exceeded a background threshold set by measuring the fluorescence of the yeast library pool treated with streptavidin-[…] alone. When more than one independent yeast clone was isolated for a given peptide-chemokine combination, the mean percent shift was calculated and reported in column 3.

[3] = target: T3, CCL8 (Homo sapiens, UniProt P80075); assay: Fluorescence polarisation (anisotropy) assay; type: binding; settings: BK1.1FITC Ala mutants, CCL8
T3 construct: SUMO (in-house protein only) (cleaved yes); made in house; host or cells: Escherichia coli RosettaGami 2 (DE3)
T3 sequence (P80075 24-99): T1 sequence (P80075 24-99)
Text: FIG. 14. Characterisation of P672_PEP-FITC by fluorescence polarisation. […] Residue C30 was mutated to A to avoid an unpaired cysteine residue. The residues corresponding to the above peptide are wholly contained within the CCL8-binding region of P672_RHIPU transferred in the hybrid evasin P672:EVA1 (SEQ ID 76, see FIG. 5). […] (SEQ ID NO: 90). FIG. 14(A). […] The curve was fitted to the two site-total and non-specific binding model in GraphPad Prism 6. Data are shown as mean and SEM of three independent experiments, with each independent experiment performed as three technical replicates. The affinity constant Kd was calculated in GraphPad Prism from the curve fit with the standard error reported.
FIG. 14(B). […] The measured fluorescence anisotropy (y-axis) of P672_PEP-FITC (50 nM) following binding to a fixed dose (1 μM)) of CCL7, CCL8, CCL18 and CXCL1 (negative control). […] Statistical significance was determined using one-way ANOVA with Sidak's correction for multiple comparisons using Graph Pad Prism 6. **=p<0.005, ****=P<0.00005, ns=not significant.
FIG. 15(C). […] In each case 100 μM (++) or […] (+) of P672_PEP was incubated with P672_PEP-FITC (50 nM)/chemokine (1 μM CCL7 and CCL18; 500 nM CCL8) and the resulting anisotropy measured. […] Experiment carried out in triplicate where each data point is the average of one experiment carried out in technical triplicate. Mean with SEM shown and statistical significance was determined using one-way ANOVA with Sidak's correction for multiple comparisons using Graph Pad Prism 6. *=p<0.05, ***=p<0.0005, ****=P<0.00005, ns=not significant.
Fluorescence polarization assays were performed using a Clariostar (BMG Tech) plate reader with the supplied FITC excitation and emission filters using 96 half area well plates (Corning). The buffer used (FP assay buffer) was 50 mM HEPES, 150 mM NaCl, 0.1% BSA, 0.002% TWEEN-20, 0.2% DMSO, pH 7.4 and the final volume in each well was 30 μL. Polarization was converted to anisotropy using the equation A=(2*P)/(3−P) where P is polarization and A is anisotropy. For each peptide tested the gain was set to 35 mP and adjusted to a well containing fluorescent peptide only. The polarization of the emitted light in the FITC emission channel was then determined. Experiments were performed as two technical and three biological replicates. Screening of P672 peptide fragments was achieved through incubation of each peptide (50 nM) with 1 μM CCL8 (Peprotech) for 30 minutes in FP assay buffer and the resulting anisotropy of the emitted light determined as above. The chemokine cross binding screen was performed by incubating 1 μM chemokine (Peprotech) with 50 nM BK1.1FITC for half an hour in FP assay buffer and the resulting anisotropy of the emitted light determined as above. […] The anisotropy was plotted as a function of CCL8 concentration and fitted to the equation: Y=Bmax*X/(KD+X)+NS*X+Background, where Y is the measured anisotropy, X is the concentration of CCL8 added, Bmax is the maximum binding, KD is the equilibrium dissociation constant, NS is the slope of the nonlinear regression and Background is the anisotropy when no CCL8 is present, in Graph Pad Prism. Displacement assays were carried out with CCL7, CCL8, and CCL18 (Peprotech, 1 μM). […] For all FP assays, the experiments were carried out as two technical and three biological replicates.

Structure (SMILES) | IC50 [1] | IC50 [2] | Fold change (Kd versus WT) [3]
CC(C)[C@H](NC(=O)[C@@H]1CCCN1C(=O)[C@H](CCCCN)NC(=O)[C@H](Cc1ccccc1)NC(=O)[C@H](Cc1ccccc1)NC(=O)[C@H](CC(=O)O)NC(=O)[C@H](CCC(=O)O)NC(=O)[C@H](Cc1ccc(O)cc1)NC(=O)[C@H](CC(=O)O)NC(=O)[C@H](CCC(=O)O)NC(=O)[C@H](CC(=O)O)NC(=O)[C@H](CCC(=O)O)NC(=O)[C@@H](N)Cc1ccc(O)cc1)C(=O)N[C@H](C(=O)N[C@@H](CSSC[C@H](NC(=O)[C@@H](NC(=O)[C@@H](NC(=O)[C@@H]1CCCN1C(=O)[C@H](CCCCN)NC(=O)[C@H](Cc1ccccc1)NC(=O)[C@H](Cc1ccccc1)NC(=O)[C@H](CC(=O)O)NC(=O)[C@H](CCC(=O)O)NC(=O)[C@H](Cc1ccc(O)cc1)NC(=O)[C@H](CC(=O)O)NC(=O)[C@H](CCC(=O)O)NC(=O)[C@H](CC(=O)O)NC(=O)[C@H](CCC(=O)O)NC(=O)[C@@H](N)Cc1ccc(O)cc1)C(C)C)[C@@H](C)O)C(=O)N[C@@H](Cc1ccc(O)cc1)C(=O)N[C@@H](Cc1ccccc1)C(N)=O)C(=O)N[C@@H](Cc1ccc(O)cc1)C(=O)N[C@@H](Cc1ccccc1)C(N)=O)[C@@H](C)O [BK1.3] (I: H-YEDEDYEDFFKPVTCYF-NH2 / II: H-YEDEDYEDFFKPVTCYF-NH2; disulfide I:15-II:15) | 47 nM | 8 nM | –
C[C@H](NC(=O)[C@@H](NC(=O)[C@H](C)NC(=O)[C@@H]1CCCN1C(=O)[C@H](CCCCN)NC(=O)[C@H](Cc1ccccc1)NC(=O)[C@H](Cc1ccccc1)NC(=O)[C@H](CC(=O)O)NC(=O)[C@H](CCC(=O)O)NC(=O)[C@H](Cc1ccc(O)cc1)NC(=O)[C@H](CC(=O)O)NC(=O)[C@H](CCC(=O)O)NC(=O)[C@H](CC(=O)O)NC(=O)[C@H](CCC(=O)O)NC(=S)Nc1ccc2c(c1)C(=O)OC21c2ccc(O)cc2Oc2cc(O)ccc21)[C@@H](C)O)C(=O)N[C@@H](Cc1ccc(O)cc1)C(=O)N[C@@H](Cc1ccccc1)C(N)=O [V28A] ({FITC}-EDEDYEDFFKPATAYF-NH2) | – | – | 3.8
CC(C)[C@H](NC(=O)[C@@H]1CCCN1C(=O)[C@H](CCCCN)NC(=O)[C@H](Cc1ccccc1)NC(=O)[C@H](Cc1ccccc1)NC(=O)[C@H](CC(=O)O)NC(=O)[C@H](CCC(=O)O)NC(=O)[C@H](C)NC(=O)[C@H](CC(=O)O)NC(=O)[C@H](CCC(=O)O)NC(=O)[C@H](CC(=O)O)NC(=O)[C@H](CCC(=O)O)NC(=S)Nc1ccc2c(c1)C(=O)OC21c2ccc(O)cc2Oc2cc(O)ccc21)C(=O)N[C@H](C(=O)N[C@@H](C)C(=O)N[C@@H](Cc1ccc(O)cc1)C(=O)N[C@@H](Cc1ccccc1)C(N)=O)[C@@H](C)O [Y21A] ({FITC}-EDEDAEDFFKPVTAYF-NH2) | – | – | 4.7
CC(C)[C@H](NC(=O)[C@@H]1CCCN1C(=O)[C@H](CCCCN)NC(=O)[C@H](Cc1ccccc1)NC(=O)[C@H](Cc1ccccc1)NC(=O)[C@H](CC(=O)O)NC(=O)[C@H](CCC(=O)O)NC(=O)[C@H](Cc1ccc(O)cc1)NC(=O)[C@H](CC(=O)O)NC(=O)[C@H](CCC(=O)O)NC(=O)[C@H](CC(=O)O)NC(=O)[C@H](CCC(=O)O)NC(=S)Nc1ccc2c(c1)C(=O)OC21c2ccc(O)cc2Oc2cc(O)ccc21)C(=O)N[C@H](C(=O)N[C@@H](C)C(=O)N[C@@H](C)C(=O)N[C@@H](Cc1ccccc1)C(N)=O)[C@@H](C)O [Y31A] ({FITC}-EDEDYEDFFKPVTAAF-NH2) | – | – | 3.8
